“Also recorded” adds a separate entry of the source.
What was measured:
[1] = biological target: Streptavidin (Streptomyces avidinii, UniProt P22629); conditions: cited from earlier work
[2] = biological target: T1, streptavidin binding to Gly-Tyr-Gly-Gln-Pro-His-Gly-Gly sequence attached to resin A (Streptomyces avidinii, UniProt P22629)
T1 construct: purchased Sigma (streptavidin-phosphatase); Commonwealth Biotechnologies Inc. (peptide resin)

[3] = biological target: streptavidin binding to the prion protein (Streptomyces avidinii, UniProt P22629)
Chain of streptavidin binding to the prion protein (P22629 25-183 limits assumed): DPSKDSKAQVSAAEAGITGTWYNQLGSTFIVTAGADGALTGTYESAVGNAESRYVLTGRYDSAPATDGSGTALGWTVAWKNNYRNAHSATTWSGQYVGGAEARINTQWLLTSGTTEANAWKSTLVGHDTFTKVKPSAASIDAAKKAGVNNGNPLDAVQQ

T1 sequence (P22629 25-183): as the sequence (P22629 25-183 limits assumed) above
Chain of Streptavidin (P22629 25-183): as the sequence (P22629 25-183 limits assumed) above

O=C(O)CCCC[C@@H]1SC[C@@H]2NC(=O)N[C@@H]21 [D-biotin]
affinity of streptavidin to biotin [1]: ~10^15
phosphatase activity in flow through of resin A after biotin pre-incubation [2]: significant phosphatase activity; also recorded: found in the first few column volumes
competition with the production of signal ([3]; D-biotin added after binding of streptavidin to the proteins): did not compete with the production of signal
inhibition of banding at 30-34 kDa ([3]; streptavidin-phosphatase mixed with 10 μM D-biotin prior to addition to the Western blot): completely inhibited
